Measurements as given in patent US8436002B2, “AKT inhibitors” (Eli Lilly and Company, priority 2009, dated 2013).
“And” between values parts separate entries of the source, which are not always exact repeats. Identical values can stand only once.

Legend:
Experiment in all cases: Cell proliferation combination study (CellTiter-Glo)
Assay type in all cases: cell-based
A2780 = system: A2780
Method: (§1) The proliferation assay uses the CellTiter-Glo Luminescent Cell Viability Assay System (commercially available from Promega) to determine the cell number of viable cells in culture based on quantitation of the ATP present, which signals the presence of metabolically active cells.
(§2) The cells are plated in 96-well plate at 2000 cells/well in volume of 50 μL medium (DMEM, 10% FBS, 25 mM HEPES, 1.0 mM Sodium Pyruvate, and 0.1 mM Non Essential Amino Acids) except column 1 with medium only as blank control. The plates are incubated overnight at 37° C. and 5% CO2. On the next day, compound stocks are prepared at 40 mM in DMSO (500×) and serially diluted in DMSO in a 96-well round bottom polypropylene plate. Compounds are assayed at 10 concentrations in duplicate, 4 compounds per plate.
(§3) 4 μL of the serial DMSO dilutions are transferred to a 96 deep-well plate and 1 mL complete culture medium is added to create 2× stock for dosing. 50 μL of each 2× dosing stock is gently transferred to the corresponding well of the cell plate resulting in a 0.2% DMSO concentration and a 100 μL final volume. […] medium are added to the Control columns (Column 12) and background columns (Column 1). Cells are incubated with compound for at 37° C., 5% CO2 for 72 hr.
(§4) After incubation, 100 μL of the pre-prepared CellTiter-Glo reagent (Promega, Cat: G7571) is added in each well and then the cells are homogenized by mixing on an orbital shaker for 2 min and incubated at RT for 10 minutes to allow luminescent signal stabilization Luminescent raw data is recorded on Wallac Victor V plate reader and the IC50 value for each compound is generated using percent inhibition data. A four-parameter logistic curve is fit to each dose response.
(§5) Combination studies use the fixed ratio method, where the other therapeutic agent and the compound of the present invention are present in fixed ratios of concentrations corresponding to the IC50 equivalents of single agents. The read out for the combination studies is cell proliferation in respective cell lines using Cell Titer Glo reagents. Controls are processed similarly but without the compounds. Analysis of the data is done according to the method described in Zhao et. Al. (Clinical Cancer Research 10, 7994-8004, Dec. 1, 2004) utilizing an internally developed web based tool. A combination index is calculated for each cell proliferation inhibition activity level according to the equation below. Combination Index at activity level x=[Concentration of other therapeutic agent in the combination at the activity level x/ICx of the other therapeutic agent]+[Concentration of the compound of the present invention in the combination at the activity level x/ICx of the compound of the present invention]

AsPC1 = system: AsPC1
Method: as §1, §2, §3, §4, §5

BxPC3 = system: BxPC3
Method: as §1, §2, §3, §4, §5

Calu6 = system: Calu6
Method: as §1, §2, §3, §4, §5

H1155 = conditions: with Gemcitabine
Method: as §1, §2, §3, §4, §5

H1650 = system: H1650
Method: as §1, §2, §3, §4, §5

HCC827 = system: HCC827
Method: as §1, §2, §3, §4, §5

MCF-7 = system: MCF-7
Method: as §1, §2, §3, §4, §5

MDA-MB-231 = system: MDA-MB-231
Method: as §1, §2, §3, §4, §5

NCI-H1975 = system: NCI-H1975
Method: as §1, §2, §3, §4, §5

NCIH460 = system: NCIH460
Method: as §1, §2, §3, §4, §5

RKO = conditions: with Irinotecan
Method: as §1, §2, §3, §4, §5

SK0V3 = system: SK0V3
Method: as §1, §2, §3, §4, §5

**Q.** Which “Combination Index at 50% Inhibition” value (A2780; with Cisplatin) does the source give for `C[C@@H]1CC(=O)Nc2ncnc(N3CCC(c4nc(C(F)(F)F)cn4CCN4CCCC4)CC3)c21` (single isomer, unassigned) [Example 77] here?
**A.** 0.93

**Q.** What about the “Combination Index at 50% Inhibition” value (A2780; with Doxorubicin) of the same compound?
**A.** 0.85

**Q.** What about the “Combination Index at 50% Inhibition” value (AsPC1; with Erlotinib) of the same compound?
**A.** 0.23

**Q.** And the “Combination Index at 50% Inhibition” value (AsPC1; with Gemcitabine)?
**A.** 0.23

**Q.** What about the “Combination Index at 50% Inhibition” value (AsPC1; with Rapamycin) of the same compound?
**A.** 0.22

**Q.** And the “Combination Index at 50% Inhibition” value (BxPC3; with Erlotinib)?
**A.** 0.36

**Q.** What about the “Combination Index at 50% Inhibition” value (BxPC3; with Gemcitabine) of the same compound?
**A.** 1.13

**Q.** What about the “Combination Index at 50% Inhibition” value (BxPC3; with Rapamycin) of the same compound?
**A.** 0.15

**Q.** And the “Combination Index at 50% Inhibition” value (Calu6; with Cisplatin)?
**A.** 0.86

**Q.** And the “Combination Index at 50% Inhibition” value (Calu6; with Docetaxel)?
**A.** 0.65

**Q.** And the “Combination Index at 50% Inhibition” value (Calu6; with Erlotinib)?
**A.** 0.20

**Q.** And the “Combination Index at 50% Inhibition” value (Calu6; with Gemcitabine)?
**A.** 1.16

**Q.** What about the “Combination Index at 50% Inhibition” value (Calu6; with Pemetrexed) of the same compound?
**A.** 0.93

**Q.** What about the “Combination Index at 50% Inhibition” value (Calu6; with Tasisulam) of the same compound?
**A.** 1.16

**Q.** And the “Combination Index at 50% Inhibition” value (H1155)?
**A.** 0.43

**Q.** What about the “Combination Index at 50% Inhibition” value (H1650; with Erlotinib) of the same compound?
**A.** 0.04

**Q.** What about the “Combination Index at 50% Inhibition” value (H1650; with Gemcitabine) of the same compound?
**A.** 0.43

**Q.** What about the “Combination Index at 50% Inhibition” value (H1650; with Rapamycin) of the same compound?
**A.** 0.07

**Q.** And the “Combination Index at 50% Inhibition” value (HCC827; with Erlotinib, HCC827)?
**A.** 1.87

**Q.** And the “Combination Index at 50% Inhibition” value (HCC827; with Gemcitabine, HCC827)?
**A.** 0.17

**Q.** What about the “Combination Index at 50% Inhibition” value (HCC827; with Rapamycin, HCC-827) of the same compound?
**A.** 1.13

**Q.** What about the “Combination Index at 50% Inhibition” value (MCF-7; with Erlotinib) of the same compound?
**A.** 0.58

**Q.** What about the “Combination Index at 50% Inhibition” value (MCF-7; with Gemcitabine) of the same compound?
**A.** 0.10

**Q.** And the “Combination Index at 50% Inhibition” value (MCF-7; with Paclitaxel)?
**A.** 0.60

**Q.** What about the “Combination Index at 50% Inhibition” value (MCF-7; with Rapamycin) of the same compound?
**A.** 0.46

**Q.** And the “Combination Index at 50% Inhibition” value (MCF-7; with Tamoxifen)?
**A.** 0.74

**Q.** And the “Combination Index at 50% Inhibition” value (MDA-MB-231; with Erlotinib)?
**A.** 0.05

**Q.** And the “Combination Index at 50% Inhibition” value (MDA-MB-231; with Gemcitabine)?
**A.** 0.39

**Q.** What about the “Combination Index at 50% Inhibition” value (MDA-MB-231; with Paclitaxel) of the same compound?
**A.** 1.13

**Q.** What about the “Combination Index at 50% Inhibition” value (MDA-MB-231; with Rapamycin) of the same compound?
**A.** 0.01

**Q.** What about the “Combination Index at 50% Inhibition” value (NCI-H1975; with Cisplatin) of the same compound?
**A.** 0.77

**Q.** And the “Combination Index at 50% Inhibition” value (NCI-H1975; with Docetaxel)?
**A.** 1.13

**Q.** What about the “Combination Index at 50% Inhibition” value (NCI-H1975; with Erlotinib) of the same compound?
**A.** 0.47

**Q.** What about the “Combination Index at 50% Inhibition” value (NCI-H1975; with Gemcitabine) of the same compound?
**A.** 0.55

**Q.** And the “Combination Index at 50% Inhibition” value (NCI-H1975; with Pemetrexed)?
**A.** 1.73

**Q.** What about the “Combination Index at 50% Inhibition” value (NCIH460; with Cisplatin) of the same compound?
**A.** 0.76 and 0.91

**Q.** And the “Combination Index at 50% Inhibition” value (NCIH460; with Docetaxel)?
**A.** 0.82

**Q.** And the “Combination Index at 50% Inhibition” value (NCIH460; with Erlotinib)?
**A.** 0.64

**Q.** And the “Combination Index at 50% Inhibition” value (NCIH460; with Gemcitabine)?
**A.** 0.88

**Q.** And the “Combination Index at 50% Inhibition” value (RKO)?
**A.** 0.83

**Q.** What about the “Combination Index at 50% Inhibition” value (SK0V3; with Cisplatin) of the same compound?
**A.** 1.00

**Q.** What about the “Combination Index at 50% Inhibition” value (SK0V3; with Doxorubicin) of the same compound?
**A.** 1.12
